{"source": "patent US20240299299A1", "about": "“COMPOSITIONS AND METHODS FOR INCREASING THE EFFICACY OF IMMUNOTHERAPIES AND VACCINES” (The Regents of the University of Michigan, priority 2021, published 2024)", "key": {"[1]": {"tested_on": "CT26 colon carcinoma cells", "test": "CT26 tumor model, intratumoral metabolites plus α-PD-1", "type": "in vivo, BALB/c mice", "experimental": "FIG. 5: a) Therapeutic treatment regimen. BALB/c mice were s.c. inoculated with 1.5×10^5 CT26 colon carcinoma cells. The candidate metabolites were injected intratumorally every other day, 100 μg α-PD-1 was i.p. injected on days 9, 12, 16 and 20. b) Average tumor growth, c) individual tumor growth, and d) overall Kaplan-Meier survival are shown. Data represent the mean±s.e.m. (n=5).\n(§1) Animals were cared for following the federal, state and local guidelines. All work conducted on animals was in accordance with and approved by the Institutional Animal Care and Use Committee (IACUC). Female (6-8 weeks old) BALB/c mice from Jackson Laboratory were inoculated with 1.5×10^5 CT26 cells per mouse on the right flank by s.c. injection. Tumor-bearing mice were randomly assigned to different treatment groups. For intratumoral injection study, the mice were injected with 3-methylhistidine (dose: 1 mg per mouse), sodium hippurate (dose: 1 mg per mouse), disodium sebacate (dose: 1 mg per mouse), sodium ferulate (dose: 1 mg per mouse), or DHB (dose: 0.5 mg per mouse) in 40 μL PBS buffer for every other day. The mice were i.p. injected with α-PD-1 antibody (100 μg per dose; clone RMP1-14, Bioxcell) on days 9, 12, 16 and 20 post tumor inoculation. For oral administration study, the mice were injected with 3-methylhistidine (dose: 3 mg per mouse), sodium hippurate (dose: 3 mg per mouse), disodium sebacate (dose: 3 mg per mouse), sodium ferulate (dose: 3 mg per mouse), or DHB (dose: 2.4 mg per mouse) in PBS buffer for 3 times every 4 days. α-PD-1 was injected on days 10, 14, 18 and 22. The tumor size was measured, and the tumor volume was calculated as ½×(length×width^2). Tumor-bearing mice were euthanized when the tumor size reached 1.5 cm in any diameter or when the animals became moribund with severe weight loss (>20%) or tumor ulceration."}, "OT-I CD8+ T cells [2]": {"tested_on": "OT-I CD8+ T cells", "test": "Tcf1+CD8+ differentiation of OT-I T cells with metabolites", "type": "cell-based, mice", "settings": "day 6", "experimental": "FIG. 3: a) OT-I CD8+ T cells were cultured with different metabolites in vitro as indicated, b,c) shown are the frequency of the Tcf1^+CD8+ T cells and the representative flow cytometry plots on day 6. Data represent the mean±s.e.m. (n=5).\n(§2) Splenocytes from OT-I mice were obtained aseptically. The cells were cultured in 96-well plates (1×10^5 cells per well). For Tcm differentiation study, cells were activated with SIINFEKL peptide (4×10^−9M) in the presence of various metabolites (arginine: 3 mM; 3-methylhistidine: 3 mM; N-acetylneuraminate: 100 μM; disodium sebacate: 100 μM; DHB: 100 μM; pantothenate: 100 μM; γ-aminobutyric acid: 100 μM; glycerol: 100 μM; AICAR: 100 μM, sodium ferulate: 100 μM) for 3 days. Then cells were washed three times with T-cell medium and further cultured with IL-2 (10 ng ml^−1; PeproTech) in the presence of metabolites for 5 days. The cells were then washed twice and re-activated with SIINFEKL peptide (10 μM) for 2 h. The suspension cells were collected, blocked with CD16/32 antibody and stained with the fixable viability dye eFluor 450, FITC-CD44 rat anti-human/mouse and PE-CD62L monoclonal antibody. To test if the central memory CD8+ T cells differentiation is dependent on dendritic cells, CD8 T cells isolated from the spleen in OT-I mice were incubated in the 96-well plate, which was precoated with anti-hamster IgG antibody. […] (1 μg mL^−1) and IL-2 (100 U mL^−1) were added into each well in the presence of 3-methylhistidine (3 mM), DHB (100 μM), or sodium ferulate (100 μM) for 2 days. Then cells were washed for three times to remove α-CD3/α-CD28 antibodies and further incubated with metabolites and IL-2 (10 ng ml^−1) for 5 days. Thereafter, cells were collected for central memory CD8^+ T cells analysis. For CD8^+ T cells survival study, cells were activated with antigen peptide as above, following with thoroughly washing, and incubation in presence of IL-2 for 2 days. […] Tcf1^+CD8^+, CD44^+CD62L^+CD8^+ and survival (stained with Annexin V-APC and PI) T cells were detected via flow cytometry."}, "[3]": {"tested_on": "CT26 colon carcinoma cells", "test": "CT26 tumor model, metabolite monotherapy i.p. without α-PD-1", "type": "in vivo, BALB/c mice", "settings": "monotherapy without α-PD-1 IgG; i.p. DHB 2.4 mg or 3-methylhistidine 3 mg per dose", "experimental": "FIG. 7: a-d) In vitro cell viability of DHB at various concentrations in activated T cells, MC38, B16F10, and CT26 tumor cells. e) BALB/c mice were s.c. inoculated with 1.5×10^5 CT26 colon carcinoma cells. DHB (2.4 mg per dose) or 3-methylhistidine (3 mg per dose) was i.p. injected 3 times every 4 days, 100 μg α-PD-1 was i.p. injected on days 11, 15, and 20. Shown is the average tumor growth. Data represent the mean±s.e.m. (n=4-5)."}, "[4]": {"tested_on": "CT26 colon carcinoma cells", "test": "CT26 tumor model, orally administered metabolites plus α-PD-1", "type": "in vivo, BALB/c mice", "settings": "oral gavage 3 times every 4 days (DHB 2.4 mg, 3-methylhistidine 3 mg per mouse) plus α-PD-1 i.p.", "experimental": "FIG. 6: a) Therapeutic treatment regimen. BALB/c mice were s.c. inoculated with 1.5×10^5 CT26 colon carcinoma cells. The candidate agents were orally administrated 3 times every 4 days, 100 μg α-PD-1 was injected i.p. on days 10, 14, 18 and 22. b) Average tumor growth, c) individual tumor growth. Data represent the mean±s.e.m. (n=4-5).\nas §1, with “For oral administration study, the mice were injected with 3-methylhistidine (dose: 3 mg per mouse), sodium hippurate (dose: 3 mg per mouse), disodium sebacate (dose: 3 mg per mouse), sodium ferulate (dose: 3 mg per mouse), or DHB (dose: 2.4 mg per mouse) in PBS buffer for 3 times every 4 days. α-PD-1 was injected on days 10, 14, 18 and 22.” left out, “Tumor-bearing mice were euthanized when the tumor size reached 1.5 cm in any diameter or when the animals became moribund with severe weight loss (>20%) or tumor ulceration.” left out"}, "OT-I CD8+ T cells [5]": {"tested_on": "OT-I CD8+ T cells", "test": "Tcm differentiation of isolated OT-I CD8+ T cells activated with α-CD3/α-CD28 in the absence of dendritic cells", "type": "cell-based, mice", "settings": "α-CD3/α-CD28 activation; 3-methylhistidine 3 mM, DHB 100 μM; day 7", "experimental": "(§3) FIG. 2: a) OT-I CD8+ T cells were cultured with different metabolites in vitro as indicated, b,c) shown is the frequency of CD44^+CD62L^+ Tcm CD8+ T cells on day 8. d) OT-I CD8+ T cells were activated with α-CD3/α-CD28 antibodies in presence of metabolites as indicated and shown is the Tcm CD8+ T cells on day 7. Data represent the mean±s.e.m. (n=5).\nSplenocytes from OT-I mice were obtained aseptically. The cells were cultured in 96-well plates (1×10^5 cells per well). For Tcm differentiation study, cells were activated with SIINFEKL peptide (4×10^−9M) in the presence of various metabolites (arginine: 3 mM; 3-methylhistidine: 3 mM; N-acetylneuraminate: 100 μM; disodium sebacate: 100 μM; DHB: 100 μM; pantothenate: 100 μM; γ-aminobutyric acid: 100 μM; glycerol: 100 μM; AICAR: 100 μM, sodium ferulate: 100 μM) for 3 days. Then cells were washed three times with T-cell medium and further cultured with IL-2 (10 ng ml^−1; PeproTech) in the presence of metabolites for 5 days. The cells were then washed twice and re-activated with SIINFEKL peptide (10 μM) for 2 h. The suspension cells were collected, blocked with CD16/32 antibody and stained with the fixable viability dye eFluor 450, FITC-CD44 rat anti-human/mouse and PE-CD62L monoclonal antibody. […] Tcf1^+CD8^+, CD44^+CD62L^+CD8^+ and survival (stained with Annexin V-APC and PI) T cells were detected via flow cytometry."}, "OT-I CD8+ T cells [6]": {"tested_on": "OT-I CD8+ T cells", "test": "In vitro central memory (Tcm) differentiation of OT-I CD8+ T cells activated with SIINFEKL peptide and IL-2 with metabolites", "type": "cell-based, mice", "settings": "day 8; metabolite-supplemented medium (arginine 3 mM, 3-methylhistidine 3 mM, DHB 100 μM, sodium ferulate 100 μM)", "experimental": "as §3\nSplenocytes from OT-I mice were obtained aseptically. The cells were cultured in 96-well plates (1×10^5 cells per well). For Tcm differentiation study, cells were activated with SIINFEKL peptide (4×10^−9M) in the presence of various metabolites (arginine: 3 mM; 3-methylhistidine: 3 mM; N-acetylneuraminate: 100 μM; disodium sebacate: 100 μM; DHB: 100 μM; pantothenate: 100 μM; γ-aminobutyric acid: 100 μM; glycerol: 100 μM; AICAR: 100 μM, sodium ferulate: 100 μM) for 3 days. Then cells were washed three times with T-cell medium and further cultured with IL-2 (10 ng ml^−1; PeproTech) in the presence of metabolites for 5 days. The cells were then washed twice and re-activated with SIINFEKL peptide (10 μM) for 2 h. The suspension cells were collected, blocked with CD16/32 antibody and stained with the fixable viability dye eFluor 450, FITC-CD44 rat anti-human/mouse and PE-CD62L monoclonal antibody. To test if the central memory CD8+ T cells differentiation is dependent on dendritic cells, CD8 T cells isolated from the spleen in OT-I mice were incubated in the 96-well plate, which was precoated with anti-hamster IgG antibody. […] (1 μg mL^−1) and IL-2 (100 U mL^−1) were added into each well in the presence of 3-methylhistidine (3 mM), DHB (100 μM), or sodium ferulate (100 μM) for 2 days. Then cells were washed for three times to remove α-CD3/α-CD28 antibodies and further incubated with metabolites and IL-2 (10 ng ml^−1) for 5 days. Thereafter, cells were collected for central memory CD8^+ T cells analysis. For CD8^+ T cells survival study, cells were activated with antigen peptide as above, following with thoroughly washing, and incubation in presence of IL-2 for 2 days. Metabolites were added during this incubation (arginine: 3 mM, 1 mM; 3-methylhistidine: 3 mM, 1 mM, 500 μM, 100 μM; N-acetylneuraminate: 100 μM; disodium sebacate: 100 μM; DHB: 100 μM, 50 μM, 20 μM; pantothenate: 100 μM; γ-aminobutyric acid: 100 μM; glycerol: 100 μM; AICAR: 100 μM). Then cells were further incubated in absence of both IL-2 and metabolites for 36 h to induce the apoptosis/dead. For Tcf1^+CD8^+ differentiation study, cells were activated with antigen peptide as above, followed by thoroughly washing, and incubation with metabolites in presence of IL-2 for 3 days. […] Tcf1^+CD8^+, CD44^+CD62L^+CD8^+ and survival (stained with Annexin V-APC and PI) T cells were detected via flow cytometry."}, "OT-I CD8+ T cells [7]": {"tested_on": "OT-I CD8+ T cells", "test": "CD8+ T cell survival upon IL-2 withdrawal (Annexin V/PI)", "type": "cell-based, mice", "settings": "dependent on the dose of metabolites", "experimental": "FIG. 4: a) OT-I CD8+ T cells were cultured with different metabolites in vitro as indicated, b,c) shown are the level of survival CD8+ T cells (Annexin V^−PI^−) as well as the representative flow cytometry plots on day 5.5. Data represent the mean±s.e.m. (n=5).\nas §2"}, "cancer cells": {"tested_on": "cancer cells", "settings": "reported in literature (Eroglu et al.); cited from earlier work"}}}
{"smiles": "Cn1cncc1C[C@H](N)C(=O)O", "note": "[3-methylhistidine]", "values": [{"measurement": "systemic antitumor efficacy of α-PD-1 treatment and CT26 tumor growth", "setting": "[1]; intratumoral every other day (DHB 0.5 mg, 3-methylhistidine 1 mg per mouse) plus α-PD-1 i.p.", "value": "improved the systemic antitumor efficacy of α-PD-1 treatment and slowed down the CT26 tumors growth"}, {"measurement": "tumor-free mice on day 70", "setting": "[1]; intratumoral metabolite plus α-PD-1 i.p.", "value": 80, "unit": "%"}, {"measurement": "frequency of Tcf1+CD8+ T cells", "setting": "OT-I CD8+ T cells [2]", "value": "increased the frequency"}, {"measurement": "tumor growth in vivo", "setting": "[3]", "value": "did not inhibit the tumor growth"}, {"measurement": "efficacy of α-PD-1 treatment", "setting": "[4]", "value": "improved the efficacy of α-PD-1 treatment"}, {"measurement": "induction of central memory CD8+ T cells in the absence of dendritic cells", "setting": "OT-I CD8+ T cells [5]", "value": "can also induce central memory CD8^+ T cells"}, {"measurement": "differentiation of CD44+CD62L+ central memory CD8+ T cells", "setting": "OT-I CD8+ T cells [6]", "value": "significantly increased the differentiation"}, {"measurement": "survival of activated CD8+ T cells", "setting": "OT-I CD8+ T cells [7]", "value": "significantly increased the survival"}]}
{"smiles": "COc1cc(/C=C/C(=O)O)ccc1O", "note": "[Ferulic acid]", "values": [{"measurement": "apoptosis in cancer cells", "setting": "cancer cells", "value": "can induce apoptosis"}]}
